Source: patent US10017509B2, “Macrocylic pyrimidine derivatives” (Janssen Pharmaceutica NV, priority 2014, dated 2018)

Experiments:
[1] = molecular target: Vps34 (PIK3C3 lipid kinase) (Homo sapiens, UniProt Q8NEB9); assay: Biochemical Vps34 lipid kinase assay (ADP-Glo); settings: for IC50: serial half-log dilution 10 μM to 0.3 nM, pIC50 = -log IC50 (M); for remaining activity at 1 µM: 1 h, single dose 1 μM compound, residual activity compared to control (DMSO), read-out: VPS34_1microM_% of cntrl
Vps34 (PIK3C3 lipid kinase), sequence (Q8NEB9 whole entry, species assumed): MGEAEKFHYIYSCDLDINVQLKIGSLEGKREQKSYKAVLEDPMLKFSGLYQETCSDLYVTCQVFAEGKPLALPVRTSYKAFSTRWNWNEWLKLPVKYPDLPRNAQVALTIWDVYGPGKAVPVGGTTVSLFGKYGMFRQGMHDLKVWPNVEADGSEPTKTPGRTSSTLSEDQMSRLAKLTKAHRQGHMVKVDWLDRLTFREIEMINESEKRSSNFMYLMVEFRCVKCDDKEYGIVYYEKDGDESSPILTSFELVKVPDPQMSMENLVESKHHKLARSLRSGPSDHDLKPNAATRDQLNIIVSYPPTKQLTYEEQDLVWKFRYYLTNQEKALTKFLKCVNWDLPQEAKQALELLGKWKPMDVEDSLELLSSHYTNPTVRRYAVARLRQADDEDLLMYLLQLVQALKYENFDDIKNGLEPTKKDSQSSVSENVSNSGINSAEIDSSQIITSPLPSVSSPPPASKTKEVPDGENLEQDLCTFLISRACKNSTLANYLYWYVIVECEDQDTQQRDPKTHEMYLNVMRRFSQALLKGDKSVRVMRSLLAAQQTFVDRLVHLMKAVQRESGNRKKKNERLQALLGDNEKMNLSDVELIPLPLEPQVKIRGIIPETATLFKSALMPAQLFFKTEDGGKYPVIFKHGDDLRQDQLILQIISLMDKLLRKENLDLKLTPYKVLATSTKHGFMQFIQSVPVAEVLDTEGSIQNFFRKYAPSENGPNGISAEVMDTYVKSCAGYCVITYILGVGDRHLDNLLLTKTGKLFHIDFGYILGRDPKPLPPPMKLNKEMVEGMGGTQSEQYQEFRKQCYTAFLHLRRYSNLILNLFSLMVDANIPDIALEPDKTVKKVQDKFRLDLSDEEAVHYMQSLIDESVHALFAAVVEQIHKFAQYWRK
Method in brief: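 ADP-Glo luminescence assay of PIK3C3 (7.6 nM) with 50 µM substrate and 20 µM ATP (apparent Km) in HEPES pH 7.5, 100 mM NaCl, 3 mM MnCl2, CHAPS, DTT; 60 min, 30 °C. Single dose 1 µM (residual activity vs DMSO) or half-log series 10 µM-0.3 nM giving pIC50.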

EF2K [2] = molecular target: T1, EF2K (Homo sapiens, UniProt O00418); assay: EF2K cell-based assay (P-EF2 AlphaLISA, 2-deoxyglucose stimulated MCF10A cells); settings: 2.5 mM 2-deoxyglucose stimulated, P-EF2 Thr56, pIC50 = -log IC50 (M), read-out: eEF2K_C_PThr56 pIC50 (converted)
T1 construct: host or cells: LN-229 cell lysate
T1 sequence (O00418 1-725): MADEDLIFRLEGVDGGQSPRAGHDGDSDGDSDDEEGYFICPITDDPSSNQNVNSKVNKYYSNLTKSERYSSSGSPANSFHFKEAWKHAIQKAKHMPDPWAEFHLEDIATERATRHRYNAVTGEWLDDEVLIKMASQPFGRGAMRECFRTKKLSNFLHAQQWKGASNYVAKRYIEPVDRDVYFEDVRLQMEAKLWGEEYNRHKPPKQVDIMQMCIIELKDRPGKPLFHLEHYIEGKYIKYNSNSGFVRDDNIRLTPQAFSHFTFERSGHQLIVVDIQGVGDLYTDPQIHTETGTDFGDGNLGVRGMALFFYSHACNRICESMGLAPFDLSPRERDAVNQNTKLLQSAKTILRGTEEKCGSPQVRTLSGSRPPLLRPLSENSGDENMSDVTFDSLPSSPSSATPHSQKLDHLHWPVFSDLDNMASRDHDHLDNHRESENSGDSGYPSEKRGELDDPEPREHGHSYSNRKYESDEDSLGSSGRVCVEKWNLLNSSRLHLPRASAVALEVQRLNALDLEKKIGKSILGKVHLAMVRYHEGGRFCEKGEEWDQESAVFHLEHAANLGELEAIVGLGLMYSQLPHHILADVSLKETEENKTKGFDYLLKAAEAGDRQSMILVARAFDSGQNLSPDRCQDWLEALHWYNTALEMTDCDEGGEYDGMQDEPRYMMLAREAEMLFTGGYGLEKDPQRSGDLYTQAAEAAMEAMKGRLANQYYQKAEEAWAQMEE
Method in brief: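 MCF10A cells, after 24 h culture, treated 1 h with compound then stimulated 4 h with 2.5 mM 2-deoxyglucose to activate AMPK. Lysates in M-PER with protease/phosphatase inhibitors assayed for P-EF2 by AlphaLISA; pIC50 = −log IC50 (M).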

EF2K [3] = molecular target: T1, EF2K; assay: Biochemical EF2K lysate-based kinase assay (AlphaLISA p-eEF2 Thr56); settings: pIC50 = -log IC50 (M), read-out: eEF2K_C_alphalisa pIC50 (converted)
Method in brief: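 LN-229 glioblastoma lysate supplied both EF2K and eEF2 substrate; compound incubated 15 min at room temperature in pH 6.6 buffer with 10 mM Mg2+ and 10 mM ATP. EDTA-stopped; phospho-eEF2 Thr56 quantified by AlphaLISA sandwich, final read after overnight. Values as pIC50.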

Compound | IC50 [1] [M] | IC50 (EF2K [2]) [M] | IC50 (EF2K [3]) [M] | remaining activity at 1 µM [1] [%]
CC(C)CN1CCNC(=O)CN2CCN(CC2)Cc2cccc(c2)Nc2nccc(n2)-c2ccc(nc2)C1 [Compound 38] | 7.76e-08 | 1.86e-07 | 8.91e-09 | –
O=C1CN2CCN(CC2)Cc2cccc(c2)Nc2nccc(n2)-c2ccc(nc2)CN(CC2CCOCC2)CCN1 [Compound 39] | – | 3.09e-06 | 1.2e-06 | 30.7
O=C1CN2CCN(CC2)Cc2cccc(c2)Nc2nccc(n2)-c2ccc(nc2)CN(CC2CCCO2)CCN1 (stereo not drawn) [Compound 40] | 2.24e-07 | ~8.13e-07 | 1.35e-07 | 17.7
O=C1CN2CCN(CC2)Cc2cccc(c2)Nc2nccc(n2)-c2ccc(nc2)CN(CCOCC(F)(F)F)CCN1 [Compound 41] | – | 1.78e-06 | ~4.47e-07 | 30.8
COCCN1CCNC(=O)CN2CCN(CC2)Cc2cccc(c2)Nc2nccc(n2)-c2ccc(nc2)C1 [Compound 42] | 3.02e-07 | 4.27e-07 | 3.24e-08 | 10.2
CCCN1CCNC(=O)CN2CCN(CC2)Cc2cccc(c2)Nc2nccc(n2)-c2ccc(nc2)C1 [Compound 43] | 1.07e-07 | 1.91e-07 | 6.17e-09 | 4.32
O=C1CN2CCN(CC2)Cc2cccc(c2)Nc2nccc(n2)-c2ccc(nc2)CN(C(=O)C2CC2)CCN1 [Compound 44] | 3.02e-07 | 2.4e-06 | 8.51e-08 | 10.2
C=CCN1CCNC(=O)CN2CCN(CC2)Cc2cccc(c2)Nc2nccc(n2)-c2ccc(nc2)C1 [Compound 45] | 1.66e-07 | 2.19e-07 | 7.94e-09 | –
O=C1CN2CCN(Cc3cccc(c3)Nc3nccc(n3)-c3ccc(nc3)NCCCN1)C(CO)C2 (stereo not drawn) [Compound 46] | 2.69e-08 | 4.9e-06 | 1.66e-07 | 3.73
CC1CN2CCN1CC(=O)NCCCNc1ccc(cn1)-c1ccnc(n1)Nc1cccc(c1)C2 (stereo not drawn) [Compound 49] | – | 2.34e-06 | 3.89e-07 | 37.4
O=C1CN2CCN(Cc3cccc(c3)Nc3nccc(n3)-c3ccc(nc3)NCCCN1)C(C(F)(F)F)C2 (stereo not drawn) [Compound 50] | 3.98e-07 | 4.9e-06 | 1.12e-07 | 12.4
CN1CCCN(C)c2ccc(cn2)-c2ccnc(n2)Nc2cccc(c2)CN2CCN(CC1=O)CC2CO (stereo not drawn) [Compound 51] | 4.79e-07 | 1.55e-05 | 1.55e-07 | 14.6
N#CCCN1CCCNC(=O)CN2CCN(Cc3cccc(c3)Nc3nccc(n3)-c3ccc1nc3)C(CO)C2 (stereo not drawn) [Compound 54] | 8.51e-08 | > 3.02e-05 | 9.12e-07 | 4.02
COC(=O)C1CN2CCN1Cc1cccc(c1)Nc1nccc(n1)-c1ccc(nc1)N(C)CCCN(C)C(=O)C2 (stereo not drawn) [Compound 55] | 8.91e-07 | > 3.02e-05 | 1.45e-07 | –
O=C1CN2CCCN(CC2)Cc2cccc(c2)Nc2nccc(n2)-c2ccc(nc2)NCCCN1 [Compound 56] | 1.26e-08 | 4.47e-06 | 4.07e-06 | 3.19
CN1CCCN(C)c2ccc(cn2)-c2ccnc(n2)Nc2cccc(c2)CN2CCCN(CC2)CC1=O [Compound 57] | 2.95e-07 | > 3.02e-05 | 2.57e-06 | –
CC1CN2CCN1Cc1cccc(c1)Nc1nccc(n1)-c1ccc(nc1)N(C)CCCN(C)C(=O)C2 (stereo not drawn) [Compound 58] | 4.27e-07 | 2.09e-06 | 1.17e-07 | 15.9
NC(=O)C1CN2CCN1Cc1cccc(c1)Nc1nccc(n1)-c1ccc(nc1)NCCCNC(=O)C2 (stereo not drawn) [Compound 59] | 3.89e-08 | > 3.02e-05 | 5.75e-07 | 3.56
CC1CN2CCN1Cc1cccc(c1)Nc1nccc(n1)-c1ccc(nc1)NCCCNC(=O)C2 (stereo not drawn) [Compound 60] | 6.46e-08 | 2.75e-06 | 1.78e-07 | 6.55
CN1CCCN(C)c2ccc(cn2)-c2ccnc(n2)Nc2cccc(c2)CN2CCN(CC1=O)C(CCO)C2 (stereo not drawn) [Compound 63] | 3.24e-07 | > 3.02e-05 | 2.4e-07 | 16.4
CN1CCCN(C)c2ccc(cn2)-c2ccnc(n2)Nc2cccc(c2)CN2CCN(CC2)C(c2ccccc2)C1=O (stereo not drawn) [Compound 64] | – | 2.63e-05 | 7.24e-07 | 64.6
O=C1NCCCNc2ccc(cn2)-c2ccnc(n2)Nc2cccc(c2)CN2CCN(CC2)C1CO (stereo not drawn) [Compound 65] | 3.31e-07 | 5.62e-06 | 1.66e-07 | 10.8
COCC1C(=O)NCCCNc2ccc(cn2)-c2ccnc(n2)Nc2cccc(c2)CN2CCN1CC2 (stereo not drawn) [Compound 66] | 1.41e-07 | 4.17e-06 | 7.76e-08 | 6.72
CC1C(=O)N(C)CCCN(C)c2ccc(cn2)-c2ccnc(n2)Nc2cccc(c2)CN2CCN1CC2 (stereo not drawn) [Compound 67] | – | 3.89e-06 | 1.29e-07 | 32.1
O=C1CC2CN(CCN2)Cc2cccc(c2)Nc2nccc(n2)-c2ccc(nc2)NCCCN1 (stereo not drawn) [Compound 70] | 1.2e-08 | > 3.02e-05 | 6.03e-06 | 7.38
CN1CCN2Cc3cccc(c3)Nc3nccc(n3)-c3ccc(nc3)NCCCNC(=O)CC1C2 (stereo not drawn) [Compound 71] | 1.74e-08 | > 3.02e-05 | 7.59e-06 | 12
CN1CCN(C)c2ccc(cn2)-c2ccnc(n2)Nc2cccc(c2)CN2CCNC(CC1=O)C2 (stereo not drawn) [Compound 72] | 3.02e-07 | > 3.02e-05 | 3.8e-06 | 11.5
CN1CCN(C)c2ccc(cn2)-c2ccnc(n2)Nc2cccc(c2)CN2CCN(C)C(CC1=O)C2 (stereo not drawn) [Compound 73] | 4.07e-07 | > 3.02e-05 | 1.82e-06 | 19.6
CN1CCCN(C)c2ccc(cn2)-c2ccnc(n2)Nc2cccc(c2)CN2CCN(C)C(C2)C1=O (stereo not drawn) [Compound 75] | 1.38e-06 | > 3.02e-05 | > 3.02e-05 | 22.9
O=C1CN2CCN(CC2=O)Cc2cccc(c2)Nc2nccc(n2)-c2ccc(nc2)NCCCN1 [Compound 77] | 1.29e-07 | > 3.02e-05 | 2.09e-06 | 6.27
